A value given as a limit tells only on which side of the number the result lay.

The results in this text go back to US9675642B2, “Engineered dendritic cells and uses for the treatment of cancer” (Intrexon Corporation, priority 2007, dated 2017).

Assay [1] has as its system B16 melanoma. The experiment in a line: Established s.c. B16 melanoma, i.t. DC plus i.p. RG-115830. The class given is in vivo, C57BL/6 mice. The settings on record: RG-115830 alone, or DC.RheoIL12 in the absence of RG-115830. The method, then: B6 mice received subcutaneous injection of 1×10^5 B16 melanoma cells in the right flank on day 0. On day 7, tumors reached a size of approximately 20-30 mm^2 and mice were treated with i.t. injections of PBS or 1×10^6 control vs. adenoviral transduced (MOI=100) DC in a total volume of 50 μl of PBS. Mice also received i.p. injections of 200 μg RG-115830 (in 50 μl DMSO) vs. DMSO carrier control that were initiated at 0 h, 24 h or 48 h post-DC administration, as indicated. After initiation, mice received a total of 5 consecutive daily intraperitoneal injections of RG-115830 at this dose. In additional experiments, ligand was administered beginning on the day of DC injection and then terminated 1, 3 or 5 days post-DC injection to discern whether early cessation of IL-12p70 transgene promotion reduced the therapeutic benefits of this approach. In all cases, tumor size was assessed every 3 or 4 days and recorded in mm^2 by determining the product of the largest perpendicular diameters measured by vernier calipers. Data are reported as the average tumor area±SD. All animal cohorts contained 5 mice/group.
B16 melanoma cells (1×10^5) were injected s.c. in the […] flank of syngenic H-2^b B6 mice and allowed to establish. On day 7, mice were randomized into cohorts of 5 animals each, with a mean cohort tumor size of approximately 20-30 mm^2. […]

A further assay deals with GL261 gliomas. In words: Intracranial GL261 glioma survival, i.t. transduced DC plus i.p. RG-115830. The conditions noted are these: at 50 days; DC expressing IFN-alpha and IL-12 under RTS, RG-115830 intra-peritoneal. In kind it is in vivo, mice. The source says: Abbreviations in this figure are as follows: Ad-IFNa is Adenoviral vector constitutively expressing IFN-alpha; Ad-RTS-IFNa is Adenoviral vector encoding IFN-alpha under RTS control; Ad-RTS-IFNa no ligand is Adenoviral vector containing RTS and IFN-alpha where no activator ligand was present; Ad-IFNa/IL-12 corresponds to DC transduced with Adenoviral vectors encoding IFN-alpha and IL-12; and Ad-RTS-IFNa/IL-12 corresponds to DC transduced with two Adenoviral vectors encoding IFN-alpha and IL-12 under RTS control.
In this example, dendritic cells were isolated from bone marrow, transduced with the Adenoviral constructs depicted in FIG. 7, and mice bearing syngeneic intracranial GL261 gliomas were intratumorally injected with engineered dendritic cells; and RG-115830 was injected intra-peritoneal. […] The data reveal that ligand induced expression of IFN-alpha and IL-12 through activation of the RTS with RG-115830 ligand promoted 75 percent survival at 50 days of GL261 glioma mice; as compared to IFN-alpha expression alone. Furthermore, the control provided by the RheoSwitch and ligand promoted enhanced survival.

Assay [2] relates to DC infected with rAd.RheoIL12 (DC.RheoIL12). In words: IL-12p70 secretion by adenovirus-infected murine BM-derived DC (ELISA). The class given is cell-based, mouse. The method, then:
DCs were generated from murine bone marrow as previously described (Tatsumi et al., 2003). Briefly, wild-type or EGFP Tg mouse BM was cultured in CM supplemented with 1000 units/ml recombinant murine granulocyte/macrophage colony-stimulating factor and recombinant mIL-4 (Peprotech, Rocky Hill, N.J.) at 37° C. in a humidified, 5% CO2 incubator for 7 days. CD11c^+ DC were then isolated using specific MACSTM beads, per the manufacturer's protocol (Miltenyi Biotec, Auburn, Calif.). CD11c^+ DC produced in this manner were >95% pure based on morphology and co-expression of the CD11b, CD40, CD80, and class I and class II MHC antigens.
Day 7 cultured DC were untreated, were infected with recombinant Ads encoding murine IL-12p70 driven off a constitutive (rAd.cIL12) or inducible (rAd.RheoIL12) promoter, or were infected with mock, control vector rAdψ5, over a range of MOIs. At various time points after this (0-48 h), DC were then cultured in the absence or presence of an activating ligand (10-200 μg/ml) for an additional 24 h prior to analysis of IL-12p70 secretion using a specific ELISA kit (BDPharMingen, San Diego, Calif.; lower level of detection=62.5 pg/ml). […] Alternatively, after 48 h, infected DC were harvested and analyzed for phenotype and for production of IL-12p70 using the ELISA kit (BD-PharMingen, San Diego, Calif.), with a lower level of detection of 62.5 pg/ml. […]

Assay [3] deals with mouse dendritic cells transduced with Ad-RTS-mIL-12. In words: Activator Drug dose-dependent IL-12 expression in mouse DC transduced with Ad-RTS-mIL-12. The conditions noted are these: varying doses of Activator Drug. The class given is cell-based.
The test system of assay [4] is human dendritic cells transduced with adenoviral vector Ad-RTS-mIL-12. The experiment in a line: IL-12 production by human DC transduced with Ad-RTS-mIL-12. The class given is cell-based. The settings on record: 3 hour viral adsorption at MOI of 500. The source says: The activator drug (“AD” or “activating ligand”) induced IL-12 expression in these transduced human dendritic cells.

The subject of assay [5] is human and mouse cell lines and primary dendritic cells transduced with recombinant adenoviral vector carrying the genes for IL12. In words: IL12 induction in cell lines and primary DC transduced with IL12 adenoviral vector. In kind it is cell-based. The conditions noted are these: in vitro.
The test system of the next assay is RTS. The experiment in a line: Activation of the RTS by ligand enantiomer. The conditions noted are these: R enantiomer versus racemic mixture. The method, then:
DC-SP1 i.t. therapy using i.p. administered ligand yielded a clear ligand dose-tumor inhibition response pattern, with optimal anti-tumor effects at ligand doses >30 mg/kg/day. […] 20-22.5 mg/kg/day of the active enantiomer. […] The availability of oral administration of the ligand would ease the burden of the treatment on patients.
The recombinant DNA used as the recombinant adenoviral vector allows the expression of human IL-12 under the control of the RheoSwitch® Therapeutic System (RTS). The RTS comprises a bicistronic message expressed from the human Ubiquitin C promoter and codes for two fusion proteins: Gal4-EcR and VP16-RXR. Gal4-EcR is a fusion between the DNA binding domain (amino acids 1-147) of yeast Gal4 and the DEF domains of the ecdysone receptor from the insect Choristoneura fumiferana. […] VP16-RXR is a fusion between the transcription activation domain of HSV-VP16 and the EF domains of a chimeric RXR derived from human and locust sequences. […]

Assay [6] relates to B16 melanoma. In words: DC dose and duration of ligand administration in B16 melanoma. The class given is in vivo, B6 mice. As to the method:
Tumor bearing mice were given a single intratumoral injection of AdDCs at doses of 10^5, 10^6, and 10^7 cells and daily i.p. injection of Activating Ligand at a single dose of 30 mg/kg/day for 6 days or 13 days beginning on the day of the injection of 10^7 cells. […] There was no effect of the Activating Ligand alone (without AdDCs) on tumor growth.
In a similar experiment to FIG. 12, the Activating Ligand was administered by oral gavage for 9 and 12 days. The anti-tumor dose response with an oral formulation of the Activating Ligand at different doses in Labrasol was assessed.
B16 melanomas were established s.c. for 7 days in the right flanks of 5 syngeneic B6 mice. On day 7, DC.SP1-IL-12 (bone marrow derived DC infected at an MOI of 100 using the SP1 optimal switch) were injected intratumorally (i.t.) at doses of 10E5, 10E6 or 10E7. RG-115932 was provided by i.p. injection beginning on the day of DC injection (and daily thereafter for either 6 days or 13 days). Each cohort contained 5 animals, with tumor growth monitored every 3-4 days and reported as mean size (mm squared based on the product of orthogonal measurements). Individual animal weights were also assessed at the time of tumor measurements (FIG. 13). All animals rendered free of disease by any therapy were rechallenged on day 50 (post-initial B16 tumor inoculation) with 10E5 B16 melanoma cells on the opposite flank (left flank) of the original tumor and with 10E5 MC38 colon carcinoma cells on the right flank. Tumor growth was monitored every 3-4 days and compared against growth observed in naïve (untreated) animals (see FIG. 12).

Another assay deals with B16 melanomas. The experiment in a line: Ligand route/dose comparison with i.t. DC.SP1-IL12 in B16 melanoma. In kind it is in vivo, B6 mice. The method, then: B16 melanomas were established s.c. for 7 days in the right flanks of syngenic B6 mice. On day 7, 10^6 DC.SP1-IL12 (optimal switch identified in FIG. 10 comparison) were injected intratumorally (i.t.). Activating ligand (RG-115932) was provided either as an injection i.p., via oral gavage in Labrasol, or via drug-containing chow provided ad libitum beginning on the day preceding DC injection (and daily thereafter for 6 days). Each cohort contained 5 animals, with tumor growth monitored every 3-4 days and reported as mean size (mm^2 based on the product of orthogonal measurements). The treatment for each cohort is described below.

Consider `CCCC(N(NC(=O)c1cccc(OC)c1CC)C(=O)c1cc(C)cc(C)c1)C(C)(C)C` (centres unmarked) [RG-115830, 3,5-Dimethyl-benzoic acid N-(1-tert-butyl-butyl)-N′-(2-ethyl-3-methoxy-benzoyl)-hydrazide], for which, in the assay with B16 melanoma [1], the therapeutic benefit entry is reported as “failed to yield any therapeutic benefit”. Also, the survival in the assay on GL261 gliomas was 75%. Also, the “RG-115830 concentration for optimal infected DC production of IL-12p70” value in assay [2] (MOI of 100) is 50 to 200 µg/mL. In addition, the “IL-12p70 production after delayed provision of RG-115830” value in [2] (delayed for up to 48 h compared to 0 h timepoint) is “did not result in any significantly reduced production of IL-12p70”.

Consider `CCC[C@@H](N(NC(=O)c1cccc(OC)c1CC)C(=O)c1cc(C)cc(C)c1)C(C)(C)C` [RG-115932, (R)-3,5-Dimethyl-benzoic acid N-(1-tert-butyl-butyl)-N′-(2-ethyl-3-methoxy-benzoyl)-hydrazide], for which the IL-12 production entry in assay [3] is given as “produced IL-12 in a dose dependent manner”. Further, the IL-12 expression result in [4] is “induced IL-12 expression in these transduced human DCs”. The IL12 expression result in assay [5] is “induction of IL12 expression in response to the activator drug in a dose dependent way”. For the same molecule, the “activation of the RTS” value in the assay with RTS is “capable of activating the RTS”. Besides, in the assay with B16 melanoma [6] (13 days in a row with 10^7 dendritic cells), the tumor regression result was “effective in causing tumor regression over a 25 day period”. Moreover, the “suppression of tumor growth, 13 days instead of 6 days of ligand” value in the assay with B16 melanoma [6] (i.p. 30 mg/kg/day with AdDCs) is on record as “significantly more robust suppression of tumor growth”. For the same molecule, the “anti-tumor dose response, oral ligand” value in the assay on B16 melanoma [6] (oral gavage in Labrasol for 9 and 12 days) is on record as “dose dependent anti-tumor effect”. Moreover, the “oral dose with the greatest responses” value in the assay with B16 melanoma [6] (orally for 12 days, Labrasol) turned out to be 50 mg/kg/day. Moreover, the “tumor growth, ligand alone” value with B16 melanoma [6] (without AdDCs) is “no effect”. The “efficacy by route of ligand administration” value in the assay on B16 melanomas (DC-SP1 i.t. therapy, ligand 30 mg/kg/day) was “equally effective if ligand is administered by i.p. injection, oral gavage, or diet admix”. Moreover, the “ligand dose giving optimal anti-tumor effects” value in the assay with B16 melanomas (DC-SP1 i.t. therapy, ligand i.p.) is over 30 mg/kg/day. The “efficacy by route in mouse melanoma model” value with B16 melanomas (DCs transduced with murine IL-12 under RTS) is “effective in intraperitoneal and oral routes”. Also, the “B16 tumor growth, ligand alone” value in the assay on B16 melanomas (no DC, any dose or any route) is reported as “had no impact on B16 tumor growth”.
